Non-standard residues stand in square brackets, D forms with d. Residues, ends and D or L forms follow the SMILES beside them. ξ: configuration not given here. dPip = O=C(O)[C@H]1CCCCN1; dThz = O=C(O)[C@H]1CSCN1; ξAze = O=C(O)C1CCN1
Tests used:
[1] = Index of Bioavailability (plasma TT AUC, oral vs i.v.); assay type: in vivo; conditions: rats, oral vs i.v. bolus
Text: Assays are done in duplicate and averaged.
Each sample population represents alternating sequential time points.

human thrombin = human thrombin (Homo sapiens, UniProt P00734); experiment: Thrombin amidase inhibition (Kass), chromogenic substrate; assay type: biochemical
Outline: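 Purified human thrombin (8 NIH units/ml solution) mixed with compound in 50% aqueous methanol and 0.03M Tris, 0.15M NaCl, pH 7.4; chromogenic substrate (0.25 mg/ml solution) added, p-nitroaniline release followed at 405 nm. Free thrombin read from a standard curve; Kass (L/mol) is the mean over a range of compound concentrations.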

human plasma [2] = experiment: Human plasma anticoagulation, activated partial thromboplastin time (APTT); assay type: biochemical
Outline: (§1)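 Compounds added across a wide concentration range to human plasma; APTT, PT and TT clotting times measured on a coagulation instrument, bovine thrombin used for plasma assays. Concentration doubling clotting time estimated by linear extrapolation.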

[3] = biological target: T1, tissue plasminogen activator (t-PA) (Homo sapiens, UniProt P00750); experiment: Serine protease inhibition (Kass), t-PA; assay type: biochemical
T1 construct: purchased American Diagnostica, Greenwich, Conn

Bovine trypsin = biological target: T2, Bovine trypsin (Bos taurus, UniProt P00760); experiment: Serine protease inhibition (Kass), trypsin; assay type: biochemical
T2 construct: Bovine trypsin is purchased from Worthington Biochemicals; purchased Worthington Biochemicals, Freehold, N.J
T2 sequence (P00760 24-246): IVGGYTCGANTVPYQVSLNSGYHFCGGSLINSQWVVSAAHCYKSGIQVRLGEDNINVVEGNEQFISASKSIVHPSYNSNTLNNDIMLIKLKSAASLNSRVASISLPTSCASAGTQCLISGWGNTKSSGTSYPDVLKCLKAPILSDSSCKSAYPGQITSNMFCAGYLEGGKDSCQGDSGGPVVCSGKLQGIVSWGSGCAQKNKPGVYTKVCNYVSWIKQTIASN
Outline: (§2)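 Chromogenic p-nitroanilide substrate assays run as for human thrombin; trypsin with N-Benzoyl-Phe-Val-Arg-p-nitroanilide, human factor Xa with N-Benzoyl-Ile-Glu-Gly-Arg-p-nitroanilide. Values are association constants (Kass).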

Human plasmin = biological target: T3, Human plasmin (Homo sapiens, UniProt P00747); experiment: Serine protease inhibition (Kass), plasmin; assay type: biochemical
T3 construct: Human plasmin is purchased from Boehringer Mannheim; purchased Boehringer Mannheim, Indianapolis, Ind
Outline: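 Chromogenic enzyme assays run as for human thrombin, giving association constants (Kass). Human plasmin used with H-D-Val-Leu-Lys-p-nitroanilide; t-PA (single-chain nt-PA or modified mt-PA6) with H-D-Ile-Pro-Arg-p-nitroanilide.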

human plasma [4] = experiment: Human plasma anticoagulation, prothrombin time (PT); assay type: biochemical
Outline: as §1

human plasma [5] = experiment: Human plasma anticoagulation, thrombin time (TT); assay type: biochemical
Outline: as §1

factor Xa = biological target: T4, factor Xa (Homo sapiens, UniProt P00742); experiment: Serine protease inhibition (Kass), factor Xa; assay type: biochemical
T4 construct: Human factors X, Xa, IXa, XIa, and XIIa are purchased from Enzyme Research Laboratories; purchased Enzyme Research Laboratories, South Bend, Ind
Outline: as §2

T1 sequence (P00750 36-562): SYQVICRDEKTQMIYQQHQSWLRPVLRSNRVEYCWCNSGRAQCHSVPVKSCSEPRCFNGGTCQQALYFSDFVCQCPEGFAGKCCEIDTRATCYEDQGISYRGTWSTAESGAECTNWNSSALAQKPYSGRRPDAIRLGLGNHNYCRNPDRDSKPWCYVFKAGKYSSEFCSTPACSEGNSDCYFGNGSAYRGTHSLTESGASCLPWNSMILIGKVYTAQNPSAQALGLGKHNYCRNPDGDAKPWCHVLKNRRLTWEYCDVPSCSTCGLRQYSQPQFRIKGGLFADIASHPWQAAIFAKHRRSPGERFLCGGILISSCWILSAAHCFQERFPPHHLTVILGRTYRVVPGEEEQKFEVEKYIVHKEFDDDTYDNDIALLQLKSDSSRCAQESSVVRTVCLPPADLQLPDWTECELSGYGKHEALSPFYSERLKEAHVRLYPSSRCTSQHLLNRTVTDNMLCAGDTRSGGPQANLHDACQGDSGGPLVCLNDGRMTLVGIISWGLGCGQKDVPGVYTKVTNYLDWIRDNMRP
T3 sequence (P00747 581-810 limits assumed): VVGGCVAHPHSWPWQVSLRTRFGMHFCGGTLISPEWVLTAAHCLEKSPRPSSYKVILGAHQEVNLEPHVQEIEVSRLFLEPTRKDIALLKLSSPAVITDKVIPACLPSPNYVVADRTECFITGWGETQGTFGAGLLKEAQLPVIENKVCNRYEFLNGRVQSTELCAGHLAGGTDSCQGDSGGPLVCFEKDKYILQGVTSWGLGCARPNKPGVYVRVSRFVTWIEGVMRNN
T3 sequence (P00747 97-580 partner limits assumed): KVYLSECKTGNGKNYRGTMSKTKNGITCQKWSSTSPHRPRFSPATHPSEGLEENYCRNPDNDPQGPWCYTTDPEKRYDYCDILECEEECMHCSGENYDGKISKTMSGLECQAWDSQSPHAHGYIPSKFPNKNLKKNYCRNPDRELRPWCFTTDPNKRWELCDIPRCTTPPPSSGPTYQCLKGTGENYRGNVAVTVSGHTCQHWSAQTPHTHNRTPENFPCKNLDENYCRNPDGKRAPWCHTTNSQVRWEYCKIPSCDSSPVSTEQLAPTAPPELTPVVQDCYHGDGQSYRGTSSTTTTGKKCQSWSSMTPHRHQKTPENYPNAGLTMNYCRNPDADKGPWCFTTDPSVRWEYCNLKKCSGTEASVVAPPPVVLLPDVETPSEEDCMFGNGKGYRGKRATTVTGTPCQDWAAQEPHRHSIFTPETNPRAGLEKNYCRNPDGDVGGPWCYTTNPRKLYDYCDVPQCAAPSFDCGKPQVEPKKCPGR
T4 sequence (P00742 235-488 limits assumed): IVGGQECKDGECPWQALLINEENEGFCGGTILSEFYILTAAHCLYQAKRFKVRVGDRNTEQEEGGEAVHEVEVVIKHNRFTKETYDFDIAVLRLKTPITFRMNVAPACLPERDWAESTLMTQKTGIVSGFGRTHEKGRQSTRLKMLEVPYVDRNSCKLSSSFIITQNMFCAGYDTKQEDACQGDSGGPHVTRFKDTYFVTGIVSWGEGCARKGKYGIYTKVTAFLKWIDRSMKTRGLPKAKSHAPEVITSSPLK
T4 sequence (P00742 41-179 partner limits assumed): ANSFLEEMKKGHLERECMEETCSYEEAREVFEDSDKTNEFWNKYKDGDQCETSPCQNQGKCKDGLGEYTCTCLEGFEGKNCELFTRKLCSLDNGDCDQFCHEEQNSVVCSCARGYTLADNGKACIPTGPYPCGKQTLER

Row | Compound | Percent Relative Activity (Index of Bioavailability) [1] [%] | Kass Human Thrombin (human thrombin) [L/mol × 10^6] | 2 × Clotting time APTT (human plasma [2]) | Kass t-PA [3] [L/mol × 10^6] | Kass Trypsin (Bovine trypsin) [L/mol × 10^6] | Kass Plasmin (Human plasmin) [L/mol × 10^6] | 2 × Clotting time PT (human plasma [4]) | 2 × Clotting time TT (human plasma [5]) [ng/mL] | Kass Xa (factor Xa) [L/mol × 10^6]
1 | Cl.Cl.N=C(N)NCCC[C@@H](C=O)NC(=O)[C@@H]1CCCN1C(=O)C1NCCCC2CCCCC21 (mixture of isomers) [Example 8, DL-cis-3-aza-bicyclo[5.4.0]undecanyl-2-carbonyl-L-prolinyl-L-arginine aldehyde dihydrochloride] | 43 | 595 | – | – | – | – | – | – | –
2 | Cl.Cl.Cl.N=C(N)NCCC[C@@H](C=O)NC(=O)[C@@H]1CCCN1C(=O)[C@H]1C[C@@H](Oc2ccccc2)CN1.O (relative stereo) [Example 12, D-Cis-(4-phenoxy)Prolinyl-L-Prolinyl-L-Arginine Aldehyde Trihydrochloride Monohydrate] | 16 | 25 | – | – | – | – | – | – | –
3 | Cl.Cl.N=C(N)NCCC[C@@H](C=O)NC(=O)C1CCN1C(=O)[C@H]1CCCCN1 (stereo partly drawn) [Example 3, D-Homoprolinyl-L-Azetidinyl-L-Arginine Aldehyde Dihydrochloride] (H-[dPip]-[ξAze]-Arg-aldehyde) | 32 | 45 | – | – | – | – | – | – | –
4 | Cl.Cl.N=C(N)NCCC[C@@H](C=O)NC(=O)[C@@H]1CCCN1C(=O)[C@H]1CSCN1 [Example 4, D-Thiazolidinyl-4-Carbonyl-L-Prolinyl-L-Arginine Aldehyde Dihydrochloride] (H-[dThz]-Pro-Arg-aldehyde) | 16 | 5 | – | – | – | – | – | – | –
5 | Cl.Cl.N=C(N)NCCC[C@@H](C=O)NC(=O)[C@@H]1CCCN1C(=O)C1CNCCN1 (stereo partly drawn) [Example 9, D,L-Piperazin-2-yl-L-Prolinyl-L-Arginine Aldehyde Dihydrochloride] | 19 | 121 | – | – | – | – | – | – | –
6 | Cl.Cl.N=C(N)NCCC[C@@H](C=O)NC(=O)[C@@H]1CCCN1C(=O)C1NCCS1 (stereo partly drawn) [Example 10, D,L-Thiazolidinyl-2-carbonyl-L-prolinyl-L-arginine aldehyde dihydrochloride] | 5 | 27 | – | – | – | – | – | – | –
7 | CNC(CC(=O)N1CCC[C@H]1C(=O)N[C@H](C=O)CCCNC(=N)N)c1ccccc1.Cl.Cl.O.O (stereo partly drawn) [Example 15, N-methyl-3-amino-3-phenylpropionyl-L-Prolinyl-L-Arginine Aldehyde Dihydrochloride Dihydrate] | 28 | 70 | – | – | – | – | – | – | –
8 | CC(=O)N[C@H](Cc1ccccc1)C(=O)N1CCC[C@H]1C(=O)N[C@H](C=O)CCCNC(=N)N.Cl [Example 67, N-(acetyl)-D-phenylalanyl-L-Prolinyl-L-Arginine Aldehyde Hydrochloride] | – | 3.4 | 2,700 ng/mL | 0.11 | 14 | 0.28 | 4,100 ng/mL | 140 | 0.066
9 | COCC(=O)N[C@H](Cc1ccccc1)C(=O)N1CCC[C@H]1C(=O)N[C@H](C=O)CCCNC(=N)N.Cl [Example 68, N-(methoxyacetyl)-D-phenylalanyl-L-Prolinyl-L-Arginine Aldehyde Hydrochloride] | – | 33 | 440 ng/mL | 0.30 | 57 | 3.8 | 1,200 ng/mL | 38 | 0.29
10 | Cl.N=C(N)NCCC[C@@H](C=O)NC(=O)[C@@H]1CCCN1C(=O)[C@@H](Cc1ccccc1)NC(=O)C(F)(F)F [Example 69, N-(trifluoroacetyl)-D-phenylalanyl-L-Prolinyl-L-Arginine Aldehyde Hydrochloride] | – | 26 | 1,300 ng/mL | 0.17 | 15 | 0.31 | 1,800 ng/mL | 59 | 0.033
11 | Cl.N=C(N)NCCC[C@@H](C=O)NC(=O)[C@@H]1CCCN1C(=O)[C@@H](Cc1ccccc1)NC(=O)Cc1ccccc1 [Example 70, N-(phenylacetyl)-D-phenylalanyl-L-Prolinyl-L-Arginine Aldehyde Hydrochloride] | – | 29 | 1,100 ng/mL | 0.37 | 14 | 0.54 | 2,000 ng/mL | 64 | 0.10
12 | Cl.N=C(N)NCCC[C@@H](C=O)NC(=O)[C@@H]1CCCN1C(=O)[C@@H](Cc1ccccc1)NC(=O)C1CCCCC1 [Example 71, N-(cylohexoyl)-D-phenylalanyl-L-Prolinyl-L-Arginine Aldehyde Hydrochloride] | – | 20 | 1,300 ng/mL | 0.26 | 5.9 | 0.24 | 1,800 ng/mL | 63 | 0.064
13 | CCCN(CCC)S(=O)(=O)c1ccc(C(=O)N[C@H](Cc2ccccc2)C(=O)N2CCC[C@H]2C(=O)N[C@H](C=O)CCCNC(=N)N)cc1.Cl [Example 73, N-(4-di-n-propylaminosulfonylbenzoyl)-D-phenylalanyl-L-Prolinyl-L-Arginine Aldehyde Hydrochloride] | – | 43 | 3,500 ng/mL | 0.62 | 15 | 0.86 | 4,800 ng/mL | 150 | 0.32
14 | CCNC(=O)N[C@H](Cc1ccccc1)C(=O)N1CCC[C@H]1C(=O)N[C@H](C=O)CCCNC(=N)N.Cl [Example 76, N-(ethylaminocarbonyl)-D-phenylalanyl-L-Prolinyl-L-Arginine Aldehyde Hydrochloride] | – | 25 | 1,100 ng/mL | 0.54 | 60 | 2.0 | 1,700 ng/mL | 63 | 0.21
15 | CCOC(=O)N[C@H](CC1CCCCC1)C(=O)N1CCC[C@H]1C(=O)N[C@H](C=O)CCCNC(=N)N.Cl [Example 78, N-(ethoxycarbonyl)-D-cyclohexylalanyl-L-prolinyl-L-Arginine Aldehyde Hydrochloride] | – | 360 | 410 ng/mL | 0.75 | 140 | 26 | 890 ng/mL | 48 | 8.1
